Columns and labels:
[1] = biological target: Testis-specific serine/threonine-protein kinase 3 (Homo sapiens) (UniProt Q96PN8); experiment: TSSK3(h) Kinase panel; settings: Compound concentration 1.0 uM, tested as the 2H-labelled form
[2] = biological target: Ephrin type-A receptor 5 (Homo sapiens) (UniProt P54756); experiment: EphA5(h) Kinase panel; settings: Compound concentration 1.0 uM, tested as the 2H-labelled form
[3] = biological target: Cytoplasmic tyrosine-protein kinase BMX (Homo sapiens) (UniProt P51813); experiment: Bmx(h) Kinase panel; settings: Compound concentration 1.0 uM, tested as the 2H-labelled form
Cytoplasmic tyrosine-protein kinase BMX (Homo sapiens), sequence (P51813 whole entry): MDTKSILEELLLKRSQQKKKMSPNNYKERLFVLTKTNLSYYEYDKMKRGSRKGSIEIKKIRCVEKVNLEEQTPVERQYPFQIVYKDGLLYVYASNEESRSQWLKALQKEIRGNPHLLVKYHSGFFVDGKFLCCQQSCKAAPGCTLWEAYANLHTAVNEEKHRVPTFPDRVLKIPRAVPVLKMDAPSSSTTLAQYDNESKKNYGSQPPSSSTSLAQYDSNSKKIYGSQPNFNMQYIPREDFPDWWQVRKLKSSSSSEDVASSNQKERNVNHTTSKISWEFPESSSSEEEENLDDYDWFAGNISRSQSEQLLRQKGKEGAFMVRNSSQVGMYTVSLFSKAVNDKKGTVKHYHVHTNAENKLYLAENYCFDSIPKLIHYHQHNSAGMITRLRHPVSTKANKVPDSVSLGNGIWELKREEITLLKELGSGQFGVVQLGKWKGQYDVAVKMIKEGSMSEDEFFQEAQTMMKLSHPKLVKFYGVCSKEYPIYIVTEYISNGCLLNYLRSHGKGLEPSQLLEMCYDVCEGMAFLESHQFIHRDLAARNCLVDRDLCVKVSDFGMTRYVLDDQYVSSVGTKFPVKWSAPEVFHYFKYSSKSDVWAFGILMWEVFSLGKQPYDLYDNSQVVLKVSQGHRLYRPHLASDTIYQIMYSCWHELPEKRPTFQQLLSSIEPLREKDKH

[4] = biological target: Protein kinase C gamma type (Homo sapiens) (UniProt P05129); experiment: PKCgamma(h) Kinase panel; settings: Compound concentration 1.0 uM, tested as the 2H-labelled form
[5] = biological target: Serine/threonine-protein kinase 25 (Homo sapiens) (UniProt O00506); experiment: STK25(h) Kinase panel; settings: Compound concentration 1.0 uM, tested as the 2H-labelled form
[6] = biological target: Ephrin type-B receptor 2 (Homo sapiens) (UniProt P29323); experiment: EphB2(h) Kinase panel; settings: Compound concentration 1.0 uM, tested as the 2H-labelled form
[7] = biological target: Protein kinase C delta type (Homo sapiens) (UniProt Q05655); experiment: PKCdelta (h) Kinase panel; settings: Compound concentration 1.0 uM, tested as the 2H-labelled form
[8] = biological target: 5-hydroxytryptamine receptor 3A (Homo sapiens) (UniProt P46098); settings: Compound concentration 10.0 uM, tested as the 2H-labelled form
[9] = biological target: Tyrosine-protein kinase Tec (Homo sapiens) (UniProt P42680); experiment: Tec(h) activated Kinase panel; settings: Compound concentration 1.0 uM, tested as the 2H-labelled form
[10] = biological target: RAF proto-oncogene serine/threonine-protein kinase (Homo sapiens) (UniProt P04049); experiment: c-RAF(h) Kinase panel; settings: Compound concentration 1.0 uM, tested as the 2H-labelled form
RAF proto-oncogene serine/threonine-protein kinase (Homo sapiens), sequence (P04049 whole entry): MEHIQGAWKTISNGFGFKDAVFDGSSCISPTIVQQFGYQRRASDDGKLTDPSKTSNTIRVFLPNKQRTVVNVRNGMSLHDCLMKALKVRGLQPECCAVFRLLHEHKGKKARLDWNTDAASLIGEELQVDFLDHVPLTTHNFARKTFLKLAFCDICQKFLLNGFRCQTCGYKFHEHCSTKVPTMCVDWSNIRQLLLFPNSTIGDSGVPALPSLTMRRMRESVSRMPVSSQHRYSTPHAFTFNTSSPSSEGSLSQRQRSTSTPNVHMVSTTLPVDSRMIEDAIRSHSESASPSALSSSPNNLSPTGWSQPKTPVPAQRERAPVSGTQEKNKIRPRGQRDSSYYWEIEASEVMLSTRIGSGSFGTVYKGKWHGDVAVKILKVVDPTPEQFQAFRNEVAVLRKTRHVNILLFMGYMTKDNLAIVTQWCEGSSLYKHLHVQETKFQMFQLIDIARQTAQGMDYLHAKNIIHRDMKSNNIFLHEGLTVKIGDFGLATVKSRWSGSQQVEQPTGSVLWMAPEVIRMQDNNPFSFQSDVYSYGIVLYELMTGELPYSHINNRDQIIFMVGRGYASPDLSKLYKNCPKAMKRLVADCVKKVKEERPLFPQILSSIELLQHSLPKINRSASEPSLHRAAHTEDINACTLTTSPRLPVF

[11] = biological target: Platelet-derived growth factor receptor alpha (Homo sapiens) (UniProt P16234); experiment: PDGFRalpha(h) Kinase panel; settings: Compound concentration 1.0 uM, tested as the 2H-labelled form
[12] = biological target: Phosphatidylinositol 4-phosphate 3-kinase C2 domain-containing subunit alpha (Homo sapiens) (UniProt O00443); experiment: PI3KC2a(h) Kinase panel; settings: Compound concentration 1.0 uM, tested as the 2H-labelled form
[13] = biological target: Serine/threonine-protein kinase TBK1 (Homo sapiens) (UniProt Q9UHD2); experiment: TBK1(h) Kinase panel; settings: Compound concentration 1.0 uM, tested as the 2H-labelled form
[14] = biological target: Protein kinase C zeta type (Homo sapiens) (UniProt Q05513); experiment: PKCzeta(h) Kinase panel; settings: Compound concentration 1.0 uM, tested as the 2H-labelled form
Protein kinase C zeta type (Homo sapiens), sequence (Q05513 whole entry): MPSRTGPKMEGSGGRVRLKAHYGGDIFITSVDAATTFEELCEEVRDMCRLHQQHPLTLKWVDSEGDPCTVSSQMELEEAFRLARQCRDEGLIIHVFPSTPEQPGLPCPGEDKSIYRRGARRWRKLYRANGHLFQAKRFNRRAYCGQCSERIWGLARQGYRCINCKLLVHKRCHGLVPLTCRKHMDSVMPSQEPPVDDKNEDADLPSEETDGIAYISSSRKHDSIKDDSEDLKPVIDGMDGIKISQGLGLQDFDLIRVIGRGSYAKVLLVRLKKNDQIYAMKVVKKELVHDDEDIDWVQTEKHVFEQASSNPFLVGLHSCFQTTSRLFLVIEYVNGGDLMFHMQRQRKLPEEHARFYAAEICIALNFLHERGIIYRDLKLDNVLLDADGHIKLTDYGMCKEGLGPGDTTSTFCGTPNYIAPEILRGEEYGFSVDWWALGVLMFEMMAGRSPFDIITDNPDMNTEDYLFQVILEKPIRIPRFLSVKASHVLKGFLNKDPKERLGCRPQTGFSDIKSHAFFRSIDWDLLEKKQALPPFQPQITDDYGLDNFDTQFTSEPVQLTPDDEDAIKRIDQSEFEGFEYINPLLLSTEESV

[15] = biological target: Transient receptor potential cation channel subfamily M member 7 (Homo sapiens) (UniProt Q96QT4); experiment: ChaK1(h) Kinase panel; settings: Compound concentration 1.0 uM, tested as the 2H-labelled form
[16] = biological target: RAC-alpha serine/threonine-protein kinase (Homo sapiens) (UniProt P31749); experiment: PKBalpha (h) Kinase panel; settings: Compound concentration 1.0 uM, tested as the 2H-labelled form
RAC-alpha serine/threonine-protein kinase (Homo sapiens), sequence (P31749 whole entry): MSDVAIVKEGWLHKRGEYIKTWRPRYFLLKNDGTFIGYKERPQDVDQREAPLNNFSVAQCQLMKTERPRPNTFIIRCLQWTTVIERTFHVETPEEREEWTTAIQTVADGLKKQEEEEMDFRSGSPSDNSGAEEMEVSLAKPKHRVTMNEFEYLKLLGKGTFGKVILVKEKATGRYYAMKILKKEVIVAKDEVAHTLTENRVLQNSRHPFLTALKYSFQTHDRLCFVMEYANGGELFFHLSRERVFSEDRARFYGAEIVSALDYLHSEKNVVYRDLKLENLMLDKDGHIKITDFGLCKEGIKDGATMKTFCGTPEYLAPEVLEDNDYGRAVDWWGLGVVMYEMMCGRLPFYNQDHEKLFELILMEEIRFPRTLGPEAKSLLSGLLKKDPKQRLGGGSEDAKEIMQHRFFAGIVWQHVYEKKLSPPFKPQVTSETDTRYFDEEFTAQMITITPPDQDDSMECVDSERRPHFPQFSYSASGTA

[17] = biological target: Serine/threonine-protein kinase N2 (Homo sapiens) (UniProt Q16513); experiment: PRK2(h) Kinase panel; settings: Compound concentration 1.0 uM, tested as the 2H-labelled form
[18] = biological target: Platelet-derived growth factor receptor beta (Homo sapiens) (UniProt P09619); experiment: PDGFRbeta(h) Kinase panel; settings: Compound concentration 1.0 uM, tested as the 2H-labelled form
[19] = biological target: Muscarinic acetylcholine receptor M5 (Homo sapiens) (UniProt P08912); settings: Compound concentration 10.0 uM, tested as the 2H-labelled form
[20] = biological target: Mitogen-activated protein kinase kinase kinase 9 (Homo sapiens) (UniProt P80192); experiment: MLK1(h) Kinase panel; settings: Compound concentration 1.0 uM, tested as the 2H-labelled form
[21] = biological target: Mitogen-activated protein kinase kinase kinase 10 (Homo sapiens) (UniProt Q02779); experiment: MLK2(h) Kinase panel; settings: Compound concentration 1.0 uM, tested as the 2H-labelled form
[22] = biological target: Serine/threonine-protein kinase Sgk1 (Homo sapiens) (UniProt O00141); experiment: SGK(h) Kinase panel; settings: Compound concentration 1.0 uM, tested as the 2H-labelled form
[23] = biological target: MAP kinase-activated protein kinase 2 (Homo sapiens) (UniProt P49137); experiment: MAPKAP-K2(h) Kinase panel; settings: Compound concentration 1.0 uM, tested as the 2H-labelled form
[24] = biological target: Tyrosine-protein kinase Mer (Homo sapiens) (UniProt Q12866); experiment: Mer(h) Kinase panel; settings: Compound concentration 1.0 uM, tested as the 2H-labelled form
[25] = biological target: Cell division cycle 7-related protein kinase (Homo sapiens) (UniProt O00311); experiment: Cdc7/cyclinB1(h) Kinase panel; settings: Compound concentration 1.0 uM, tested as the 2H-labelled form
[26] = biological target: Ribosomal protein S6 kinase alpha-6 (Homo sapiens) (UniProt Q9UK32); experiment: Rsk4(h) Kinase panel; settings: Compound concentration 1.0 uM, tested as the 2H-labelled form
[27] = biological target: Cyclin-dependent kinase 5 (Homo sapiens) (UniProt Q00535); experiment: CDK5/p25(h) Kinase panel; settings: Compound concentration 1.0 uM, tested as the 2H-labelled form
[28] = biological target: Serine/threonine-protein kinase PLK4 (Homo sapiens) (UniProt O00444); experiment: Plk4(h) Kinase panel; settings: Compound concentration 1.0 uM, tested as the 2H-labelled form
[29] = biological target: cGMP-dependent protein kinase 1 (Homo sapiens) (UniProt Q13976); experiment: PKG1beta (h) Kinase panel; settings: Compound concentration 1.0 uM, tested as the 2H-labelled form
[30] = biological target: Mitogen-activated protein kinase kinase kinase 2 (Homo sapiens) (UniProt Q9Y2U5); experiment: MEKK2(h) Kinase panel; settings: Compound concentration 1.0 uM, tested as the 2H-labelled form
[31] = biological target: Serine/threonine-protein kinase haspin (Homo sapiens) (UniProt Q8TF76); experiment: Haspin(h) Kinase panel; settings: Compound concentration 1.0 uM, tested as the 2H-labelled form
[32] = biological target: Transcription initiation factor TFIID subunit 1-like (Homo sapiens) (UniProt Q8IZX4); experiment: TAF1L(h) Kinase panel; settings: Compound concentration 1.0 uM, tested as the 2H-labelled form
[33] = biological target: Ephrin type-A receptor 8 (Homo sapiens) (UniProt P29322); experiment: EphA8(h) Kinase panel; settings: Compound concentration 1.0 uM, tested as the 2H-labelled form
[34] = biological target: Cyclin-dependent kinase 18 (Homo sapiens) (UniProt Q07002); experiment: CDK18/cyclinY(h) Kinase panel; settings: Compound concentration 1.0 uM, tested as the 2H-labelled form
Cyclin-dependent kinase 18 (Homo sapiens), sequence (Q07002 whole entry): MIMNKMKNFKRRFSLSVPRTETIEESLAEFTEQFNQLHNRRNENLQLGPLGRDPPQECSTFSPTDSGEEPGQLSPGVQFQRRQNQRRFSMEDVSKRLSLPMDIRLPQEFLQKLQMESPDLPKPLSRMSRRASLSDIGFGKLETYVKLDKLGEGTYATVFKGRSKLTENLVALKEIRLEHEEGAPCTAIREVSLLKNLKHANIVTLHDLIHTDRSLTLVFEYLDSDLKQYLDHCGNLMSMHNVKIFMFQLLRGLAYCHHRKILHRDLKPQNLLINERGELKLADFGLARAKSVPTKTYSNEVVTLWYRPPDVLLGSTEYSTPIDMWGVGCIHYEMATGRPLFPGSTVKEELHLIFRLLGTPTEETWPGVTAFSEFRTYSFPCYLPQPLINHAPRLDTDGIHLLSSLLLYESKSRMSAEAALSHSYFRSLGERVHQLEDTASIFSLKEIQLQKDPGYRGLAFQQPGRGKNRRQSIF

[35] = biological target: Activin receptor type-1-like (Homo sapiens) (UniProt P37023); experiment: ALK1(h) Kinase panel; settings: Compound concentration 1.0 uM, tested as the 2H-labelled form
[36] = biological target: Serine/threonine-protein kinase MRCK beta (Homo sapiens) (UniProt Q9Y5S2); experiment: MRCKbeta(h) Kinase panel; settings: Compound concentration 1.0 uM, tested as the 2H-labelled form
[37] = biological target: Serine/threonine-protein kinase LATS2 (Homo sapiens) (UniProt Q9NRM7); experiment: LATS2(h) Kinase panel; settings: Compound concentration 1.0 uM, tested as the 2H-labelled form
[38] = biological target: Myosin light chain kinase 2, skeletal/cardiac muscle (Homo sapiens) (UniProt Q9H1R3); experiment: MYLK2(h) Kinase panel; settings: Compound concentration 1.0 uM, tested as the 2H-labelled form
[39] = biological target: Serine/threonine-protein kinase pim-3 (Homo sapiens) (UniProt Q86V86); experiment: Pim-3(h) Kinase panel; settings: Compound concentration 1.0 uM, tested as the 2H-labelled form
[40] = biological target: G protein-coupled receptor kinase 6 (Homo sapiens) (UniProt P43250); experiment: GRK6(h) Kinase panel; settings: Compound concentration 1.0 uM, tested as the 2H-labelled form
[41] = biological target: Tyrosine-protein kinase BTK (Homo sapiens) (UniProt Q06187); experiment: BTK(h) Kinase panel; settings: Compound concentration 1.0 uM, tested as the 2H-labelled form
[42] = biological target: Aurora kinase B (Homo sapiens) (UniProt Q96GD4); experiment: Aurora-B(h) Kinase panel; settings: Compound concentration 1.0 uM, tested as the 2H-labelled form
Aurora kinase B (Homo sapiens), sequence (Q96GD4 whole entry): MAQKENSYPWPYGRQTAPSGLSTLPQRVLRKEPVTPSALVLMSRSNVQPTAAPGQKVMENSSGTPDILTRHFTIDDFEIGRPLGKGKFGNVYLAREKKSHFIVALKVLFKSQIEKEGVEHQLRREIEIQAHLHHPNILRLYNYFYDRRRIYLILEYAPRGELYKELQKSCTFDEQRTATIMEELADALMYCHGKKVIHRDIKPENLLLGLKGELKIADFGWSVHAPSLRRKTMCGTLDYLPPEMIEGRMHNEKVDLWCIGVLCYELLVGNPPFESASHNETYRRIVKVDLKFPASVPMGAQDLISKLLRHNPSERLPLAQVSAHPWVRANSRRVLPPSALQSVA

[43] = biological target: NUAK family SNF1-like kinase 2 (Homo sapiens) (UniProt Q9H093); experiment: NUAK2(h) Kinase panel; settings: Compound concentration 1.0 uM, tested as the 2H-labelled form
NUAK family SNF1-like kinase 2 (Homo sapiens), sequence (Q9H093 whole entry): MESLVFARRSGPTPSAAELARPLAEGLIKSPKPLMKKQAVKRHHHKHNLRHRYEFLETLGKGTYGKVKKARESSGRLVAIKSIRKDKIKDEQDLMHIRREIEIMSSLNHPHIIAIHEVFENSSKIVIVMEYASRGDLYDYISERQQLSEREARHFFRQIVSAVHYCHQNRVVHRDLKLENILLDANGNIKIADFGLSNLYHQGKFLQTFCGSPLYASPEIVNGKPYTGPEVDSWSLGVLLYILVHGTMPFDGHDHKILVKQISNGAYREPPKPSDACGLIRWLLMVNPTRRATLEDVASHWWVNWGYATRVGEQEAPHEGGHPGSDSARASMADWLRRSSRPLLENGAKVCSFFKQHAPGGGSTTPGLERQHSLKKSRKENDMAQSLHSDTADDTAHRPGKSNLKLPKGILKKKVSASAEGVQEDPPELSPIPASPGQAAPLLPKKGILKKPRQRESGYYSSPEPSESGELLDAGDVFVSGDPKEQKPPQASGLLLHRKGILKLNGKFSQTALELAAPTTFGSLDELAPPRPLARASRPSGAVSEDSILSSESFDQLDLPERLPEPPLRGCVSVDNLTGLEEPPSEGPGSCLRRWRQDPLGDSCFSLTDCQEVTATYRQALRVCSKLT

[44] = biological target: Death-associated protein kinase 3 (Homo sapiens) (UniProt O43293); experiment: ZIPK(h) Kinase panel; settings: Compound concentration 1.0 uM, tested as the 2H-labelled form
Death-associated protein kinase 3 (Homo sapiens), sequence (O43293 whole entry, looked up): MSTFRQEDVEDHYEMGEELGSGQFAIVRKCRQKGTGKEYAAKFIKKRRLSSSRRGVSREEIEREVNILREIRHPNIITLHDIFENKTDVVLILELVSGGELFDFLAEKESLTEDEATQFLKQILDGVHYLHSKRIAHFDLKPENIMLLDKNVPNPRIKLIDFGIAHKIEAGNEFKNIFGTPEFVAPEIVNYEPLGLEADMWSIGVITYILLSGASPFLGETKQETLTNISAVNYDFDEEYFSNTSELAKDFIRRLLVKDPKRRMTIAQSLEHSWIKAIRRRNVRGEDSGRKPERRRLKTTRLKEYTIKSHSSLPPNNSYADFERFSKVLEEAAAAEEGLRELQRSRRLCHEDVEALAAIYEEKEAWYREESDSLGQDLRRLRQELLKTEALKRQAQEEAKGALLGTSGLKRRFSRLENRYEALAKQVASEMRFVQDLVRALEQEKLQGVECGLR

[45] = biological target: Alpha-1B adrenergic receptor (Homo sapiens) (UniProt P35368); settings: Compound concentration 10.0 uM, tested as the 2H-labelled form
Alpha-1B adrenergic receptor (Homo sapiens), sequence (P35368 whole entry): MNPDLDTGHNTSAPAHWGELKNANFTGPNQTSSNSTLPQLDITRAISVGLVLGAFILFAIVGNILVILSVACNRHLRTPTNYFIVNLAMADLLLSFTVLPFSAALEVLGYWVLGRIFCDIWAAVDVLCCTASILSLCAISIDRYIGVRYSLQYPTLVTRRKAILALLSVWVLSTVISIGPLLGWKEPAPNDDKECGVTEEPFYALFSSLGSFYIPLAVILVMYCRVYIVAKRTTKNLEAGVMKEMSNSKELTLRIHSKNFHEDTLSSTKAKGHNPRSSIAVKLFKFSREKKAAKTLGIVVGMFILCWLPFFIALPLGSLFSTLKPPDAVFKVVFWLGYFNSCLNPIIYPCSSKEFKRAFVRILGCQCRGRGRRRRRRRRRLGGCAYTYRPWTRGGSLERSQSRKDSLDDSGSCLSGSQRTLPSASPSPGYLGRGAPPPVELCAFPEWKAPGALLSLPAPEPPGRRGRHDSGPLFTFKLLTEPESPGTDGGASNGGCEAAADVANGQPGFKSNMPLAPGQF

[46] = biological target: Serine/threonine-protein kinase N1 (Homo sapiens) (UniProt Q16512); experiment: PRK1(h) Kinase panel; settings: Compound concentration 1.0 uM, tested as the 2H-labelled form
[47] = biological target: Tyrosine-protein kinase receptor UFO (Homo sapiens) (UniProt P30530); experiment: Axl(h) Kinase panel; settings: Compound concentration 1.0 uM, tested as the 2H-labelled form
[48] = biological target: 5-hydroxytryptamine receptor 1E (Homo sapiens) (UniProt P28566); settings: Compound concentration 10.0 uM, tested as the 2H-labelled form
[49] = biological target: Serine/threonine-protein kinase SBK1 (Homo sapiens) (UniProt Q52WX2); experiment: SBK1(h) Kinase panel; settings: Compound concentration 1.0 uM, tested as the 2H-labelled form
[50] = biological target: Tau-tubulin kinase 1 (Homo sapiens) (UniProt Q5TCY1); experiment: TTBK1(h) Kinase panel; settings: Compound concentration 1.0 uM, tested as the 2H-labelled form
[51] = biological target: Cyclin-dependent kinase 3 (Homo sapiens) (UniProt Q00526); experiment: CDK3/cyclinE(h) Kinase panel; settings: Compound concentration 1.0 uM, tested as the 2H-labelled form
[52] = biological target: TGF-beta receptor type-1 (Homo sapiens) (UniProt P36897); experiment: TGFBR1(h) Kinase panel; settings: Compound concentration 1.0 uM, tested as the 2H-labelled form

Measured: inhibition

CC1(C)Cn2nc(-c3ccc(F)cn3)c(-c3ccnc4[nH]ncc34)c2CO1
inactive: [1] 2% | [2] -3% | [3] 19% | [4] 3% | [5] 21% | [6] 3% | [7] 0% | [8] 1.04% | [9] 29% | [10] 12% | [11] 2% | [12] -2% | [13] 24% | [14] 5% | [15] 10% | [16] 2% | [17] -6% | [18] -9% | [19] -5.3% | [20] -3% | [21] 8% | [22] 11% | [23] -1% | [24] 6% | [25] 10% | [26] 23% | [27] 20% | [28] 16% | [29] 13% | [30] 5% | [31] 9% | [32] 3% | [33] 2% | [34] 4% | [35] 4% | [36] 2% | [37] 12% | [38] 23% | [39] 4% | [40] -9% | [41] -4% | [42] -10% | [43] -1% | [44] 13% | [45] 1.82% | [46] 9% | [47] 16% | [48] 2.51% | [49] -1% | [50] 19% | [51] -8% | [52] 43%

Source: ChEMBL document CHEMBL5058645, “Data for DCP probe JNJ-6204” (2022)
